Results on 2 compounds are retold here after patent US20110229531A1, “ANTI-PROTOZOA COMPOUNDS” (priority 2009, published 2011).

The series concerns Acanthamoeba. Description: Acanthamoeba growth inhibition, alamarBlue reduction. The format is cell-based, Acanthamoeba castellanii. An excerpt: Furthermore, inhibition was ablated in a dose dependent manner by the addition of histidine to the medium.
(Alamar Blue is a resazurin reagent that responds to reducing activity.)

What is called IC20 is the concentration needed for an effect of 20%. As usually defined, the IC50 is the concentration needed to halve the response being measured. Higher therefore signals weaker potency in that assay.

As for `Nc1nc[nH]n1` [3-AT, 3-amino-1,2,4-triazole], the “effect of 3AT on growth in the presence of histidine” value (10 mM histidine added, 0.98 mM 3-AT, alamarBlue reduction) is on record as “significantly (p<0.05) ablated the effect of 3AT”. Moreover, under “Acanthamoeba, read-out: IC20 of 3-AT”, the IC20 was found to be 980 µM. Under “Acanthamoeba, absence of histidine, percentage of alamarBlue reduction”, the IC50 was 15 to 31 µM. In addition, the “concentration required to significantly (p<0.05) inhibit A. castellanii growth” value (in the presence of 1 mM Histidine) is no less than 0.06 mM. Where the note is “medium without histidine, inhibition ablated dose dependently by added histidine”, the “growth of Acanthamoeba” value is reported as “inhibits growth”. Moreover, where the note is “no histidine, compared with untreated control cultures, dose dependent”, the “concentration that significantly (p<0.05) inhibited A. castellanii growth” value is recorded as no less than 0.00095 mM.

On to `N[C@@H](Cc1c[nH]cn1)C(=O)O` [histidine], for which the “toxicity of histidine to Acanthamoeba” value (100 mM histidine) is “toxic”.
